Entries after “also recorded” stand apart in the source; their conditions may differ.
Key:
[1] = system: PBMCs from HIV-1-infected HLA-C*14:02+ or HLA-C*14:03+ individuals; test: ex vivo IFN-γ ELISPOT assay; type: cell-based, human; settings: 1 μM peptide; for HLA-C*14 subtype of the individuals in whom responses were detected: initial screening, 10 HLA-C*14:02+ and 10 HLA-C*14:03+ individuals
Text: To clarify whether these HLA-C*14:02- and C*14:03-binding HIV-1 peptides were T cell epitopes, we investigated T cell responses to these peptides in HIV-1-infected individuals. We assessed T cell targeting of 14 putative HIV-1 epitope sites by testing responses to the 14 NL4-3 sequence-based peptides and 9 variant peptides in 10 HLA-C*14:02^+ and 10 HLA-C*14:03^+ treatment-naive individuals living with HIV-1 subtype B using ex vivo gamma interferon (IFN-γ) ELISPOT assays. To identify HLA-C*14-restricted immunodominant epitopes, we investigated whether these peptides were recognized by virus-specific T cells in 20 individuals enabling detection of epitopes typically targeted in >5% of HLA-C*14^+ individuals. […] T cell responses to variant versions of the Gag LY9, Pol KM9, and Nef IF8 peptides were detected in a number of individuals similar to the number with responses to their NL4-3 sequence-based counterparts (Fig. 3A).
FIG 3 T cell responses to HLA-C*14:02- and/or HLA-C*14:03-binding HIV-1 peptides. (A) T cell responses to HLA-C*14:02/03-binding peptides in 20 chronically HIV-1-infected Japanese individuals with HLA-C*14:02 or HLA-C*14:03. T cell targeting of 14 putative epitopes was analyzed by testing responses to 14 NL4-3 sequence-based peptides and 9 peptides that were sequence variants thereof in ex vivo IFN-γ ELISPOT assays (peptides tested at a concentration of 1 μM). A positive response was defined as >100 spots/10^6 PBMCs (indicated by the horizontal dotted line). (B) Correlation between peptide binding to HLA-C*14:02 or HLA-C*14:03 and the frequency of responders to these peptides in HLA-C*14:02^+ (blue) and HLA-C*14:03^+ (red) individuals for NL4-3 sequence-based versions of the peptides only (left) or both NL4-3 sequence-based and variant peptides (right). Statistical analyses were performed using Pearson's correlation test.
PBMCs were separated from whole blood and stored at −80°C. ELISPOT assays were performed as previously described ([13]). Briefly, 1 × 10^5 PBMCs from HIV-1-infected individuals and a 1 μM concentration of each HLA-C*14:02- and -C*14:03-eluted HIV-1 peptide were added to 96-well polyvinylidene plates (Millipore) that had been coated overnight with 5 μg/mL anti-IFN-γ MAb 1-D1K (Mabtech). The plates were incubated for 16 h at 37°C in 5% CO2, and then the cells were stained as previously described in detail ([13]). The spots were counted with an Eliphoto-Counter instrument (Minerva Teck). The number of spots was calculated per 10^6 PBMCs; 100 spots/10^6 PBMCs was defined as a positive response, as described previously ([13]).

HLA-C*14:02 = HLA-C*14:02 (Homo sapiens, UniProt P10321, A176E/A330V/A35S/A97T/C350S/D114A/D33S/L171W/L180R/L218V/M285V/M309V/M331V/P208H/Q277E/Q291P/R121W/R243W/S123F/S297R/S48A/T329A/T363A/V319A); test: LC-MS/MS identification of HLA-bound HIV-1 peptides from NL4-3-infected .221-C1402 cells; type: binding; design: key: ●: Closed circles indicate the peptide which was identified in HLA-C*1402 or/and -C*1403 expressing cells; settings: HIV-1 NL4-3-infected .221-C1402 cells, W6/32 immunoprecipitation, two independent replicate experiments
Method: (§1) 721.221 cells expressing CD4 and HLA-C*14:02 (.221-C1402) or HLA-C*14:03 (.221-C1403) were infected with the laboratory-adapted NL4-3 HIV-1 strain. HLA-peptide complexes were isolated from cell lysates by immunoprecipitation with the anti-HLA class I antibody W6/32; then, peptides were eluted, fractionated by high-performance liquid chromatography (HPLC), and finally analyzed by LC-MS/MS. Two independent replicate experiments were performed, in which a total of 7,970 and 8,447 unique 8- to 13-mer peptide sequences were identified from .221-C1402 and .221-C1403 cells, respectively (Fig. 1A). Of these peptides, 6,163 were identified in both the C*14:02- and C*14:03-bound peptide data sets, while other peptides were detected in the acid-eluted fraction from only a single allele. […] These motifs are consistent with the HLA-C*1402/03 peptide motifs previously estimated using reported epitopes ([29]).
(§2) .221-C1402 and .221-C1403 cells were infected with HIV-1 NL4-3 in a low volume of RPMI 1640 medium (Thermo Fisher) containing 10% fetal bovine serum (FBS), 2 mM L-glutamine, 100 U/mL penicillin, 100 μg/mL streptomycin, and 10 mM HEPES (R10). Fifty microliters of NL4-3 stock virus (Reverse transcriptase activity (RT) value = 4 × 10^2 ng/mL) was added to 8 × 10^6 .221-C1402 cells or .221-C1403, and the cells were then incubated for 1.5 h at 37°C, after which 20 mL of R10 was added and the cells were cultured overnight. At day 1 postinfection, a further 20 mL R10 was added, and cells were split (1:2) on day 2. On day 3 postinfection, the proportion of cells infected with HIV-1 was determined by intracellular p24 staining, as previously described ([46]). Infected flasks were then harvested for immunoprecipitation of HLA-peptide complexes.
(§3) .221-C1402 cells or .221-C1403 cells infected with NL4-3 (1.5 × 10^8 to 2 × 10^8 cells) were harvested, washed in phosphate-buffered saline (PBS), and lysed in 5 mL of lysis buffer (1% IGEPAL 630, 300 mM NaCl, 100 mM Tris [pH 8.0], plus protease inhibitors) at 4°C for 45 min. Two centrifugation steps (2,000 × g for 10 min followed by 20,000 × g for 30 min at 4°C) were next employed to clear the lysates of cell debris prior to overnight capture of HLA-peptide complexes on W6/32-coated protein A‐Sepharose beads. W6/32-bound HLA-peptide complexes were sequentially washed with 10 to 20 mL of wash buffer 1 (0.005% IGEPAL, 50 mM Tris [pH 8.0], 150 mM NaCl, 5 mM EDTA), wash buffer 2 (50 mM Tris [pH 8.0], 150 mM NaCl), wash buffer 3 (50 mM Tris [pH 8.0], 400 mM NaCl), and finally wash buffer 4 (50 mM Tris [pH 8.0]) under gravity flow in Econo-Column glass chromatography columns (Bio-Rad). Peptide-HLA complexes were eluted from the beads with 5 mL of 10% acetic acid and, after drying under vacuum, were loaded onto a 4.6- by 50-mm ProSwift RP-1S column (Thermo Fisher Scientific) and eluted from an Ultimate 3000 HPLC system (Thermo Scientific) using a 500-μL/min flow rate over 10 min from 2% to 34% buffer B (0.1% trifluoroacetic acid [TFA] in acetonitrile) in buffer A (0.1% TFA in water). Alternate fractions were pooled to give two final peptide fractions that were dried for LC-MS/MS analysis.
(§4) Each HPLC-eluted sample was resuspended in 20 μL loading buffer, and 9 μL of it was injected onto a 3-μm-particle-size 0.075-mm by 150-mm Acclaim PepMap RSLC C18 column and further loaded onto a 2-μm-particle-size, 75-μm by 50-cm Acclaim PepMap RSLC C18 column using an Ultimate 3000 nUPLC system (Thermo Scientific). A linear gradient of 3 to 25% buffer B (0.1% formic acid, 5% dimethyl sulfoxide [DMSO] in acetonitrile) in buffer A (0.1% formic acid, 5% DMSO in water) was applied over 1 h to elute peptides from the column (flow rate of […]). Peptides were introduced, using an Easy-Spray source at 2,000 V at 40°C, into a Fusion Lumos mass spectrometer (Thermo Scientific). The ion transfer tube temperature was set to 305°C. […]

HLA-C*14:03 = HLA-C*14:03 (Homo sapiens, UniProt P10321, A176E/A330V/A35S/A97T/C350S/D114A/D33S/L171W/L180R/L218V/M285V/M309V/M331V/P208H/Q277E/Q291P/R121W/R243W/R45H/S123F/S297R/S48A/T329A/T363A/V319A); test: LC-MS/MS identification of HLA-bound HIV-1 peptides from NL4-3-infected .221-C1403 cells; type: binding; design: key: ●: Closed circles indicate the peptide which was identified in HLA-C*1402 or/and -C*1403 expressing cells; settings: HIV-1 NL4-3-infected .221-C1403 cells, W6/32 immunoprecipitation, two independent replicate experiments
Method: as §1, §2, §3, §4

[2] = 10 HLA-C*14:02+ and 10 HLA-C*14:03+ treatment-naive individuals, positive >100 spots/10^6 PBMCs

| Sequence | T cell responses to peptide detected [1, 2] | C1402: peptide identified by LC-MS/MS in HLA-I eluate (HLA-C*14:02) | C1403: peptide identified by LC-MS/MS in HLA-I eluate (HLA-C*14:03) | other results |
| --- | --- | --- | --- | --- |
| AFHHMAREK [Nef AL9-5M9K, variant of Nef AL9, …, present in Japanese cohort viruses] | not detected in any of the 20 individuals |  |  |  |
| YTSLIHSLI [Env YI9, HIV-1 NL4-3 Env 638–646 peptide …, eluted only, not synthesized] |  | ● |  |  |
| VYHTQGYF [Nef IF8-1V, variant of Nef IF8, VYHTQGYF, present in Japanese cohort viruses] | detected in one or more individuals |  |  |  |
| KYHNNWRAM [Pol KM9-4N, variant of Pol KM9, …, present in Japanese cohort viruses] | detected in one or more individuals |  |  | HLA-C*14 subtype of the individuals in whom responses were detected [1]: detected in only HLA-C*14:02^+ or HLA-C*14:03^+ individuals |
| VWGRDNNSL [Pol VWL9, HIV-1 NL4-3 Pol 33–41 peptide …, eluted only, not synthesized] |  | ● | ● |  |
| LFNTVAVL [Gag LL8-2F5V, variant of Gag LL8, LFNTVAVL, present in Japanese cohort viruses] | detected in one or more individuals; also recorded: weak response |  |  | number of individuals with T cell response, of 20 tested [1, 2]: one; HLA-C*14 subtype of the individuals in whom responses were detected [1]: detected in only HLA-C*14:02^+ or HLA-C*14:03^+ individuals |
| VYYDPSKDLIA [Pol VA11, HIV-1 NL4-3 Pol 472–482 peptide […]] |  |  | ● |  |
| LFNTVAVLY [Gag LY9-2F5V, variant of Gag LY9, …, present in Japanese cohort viruses] | detected in one or more individuals |  |  |  |
| AFPQGKAREF [Pol AF10, HIV-1 NL4-3 Pol 7–16 peptide […], eluted only, not synthesized] |  | ● | ● |  |
| SFNISTSI [Env SI8, HIV-1 NL4-3 Env 158–165 peptide SFNISTSI, eluted only, not synthesized] |  |  | ● |  |
| IYHTQGYFP [Nef IP9, HIV-1 NL4-3 Nef 114–122 peptide …] |  | ● | ● |  |
| FHHVAREL [Nef FL8, HIV-1 NL4-3 Nef 191–198 peptide FHHVAREL] |  | ● | ● |  |
| PQGKAREF [Pol PF8, HIV-1 NL4-3 Pol 9–16 peptide PQGKAREF, eluted only, not synthesized] |  |  | ● |  |
| LYNTIAVL [Gag LL8, HIV-1 NL4-3 Gag 78–85 peptide LYNTIAVL eluted from HLA-C*14-expressing cells] | No T cell recognition; also recorded: no strong T cell responses | ● | ● |  |
| VYLAWVPAH [Pol VH9, HIV-1 NL4-3 Pol 686–694 peptide …] |  |  | ● |  |
| VTIGKIGNM [Env VM9, HIV-1 NL4-3 Env 318–326 peptide …, eluted only, not synthesized] |  | ● |  |  |
| FYVDGAANRET [Pol FT11, HIV-1 NL4-3 Pol 595–605 peptide […]] |  |  | ● |  |
| AFVTIGKIGNM [Env AM11, HIV-1 NL4-3 Env 316–326 peptide […], eluted only, not synthesized] |  |  | ● |  |

From PMC9131871, “Impact of Micropolymorphism Outside the Peptide Binding Groove in the Clinically Relevant Allele HLA-C*14 on T Cell Responses in HIV-1 Infection” (Journal of Virology, 2022)
